What all share (type): cell-based
Experiment [1] has as its target T1, human prostanoid FP receptor (Homo sapiens, UniProt P43088).
T1 construct: expressed in transfected cells
As to the kind of experiment: FLIPR Ca2+ signaling PG antagonist assay, FP stable cell line. The settings on record: HEK-293 EBNA cells, human recombinant FP, no exogenous G-protein; standard agonist 17-phenyl-PGF2α. How it is done: (§1) The above compounds were tested for PG antagonist activity as follows using human recombinant prostanoid receptor (DP1, EP1-4, FP, IP and TP) stable cell lines: In order to measure the response of Gs and Gi coupled prostanoid receptors as a Ca^2+ signal, chimeric G protein cDNAs were used. Stable cell lines over-expressing human prostanoid DP1, EP1-4, FP, IP, and TP receptors were established as follows:
(§2) Briefly, human prostanoid DP1, EP2, and EP4 receptor cDNAs were co-transfected with chimeric Gqs cDNA containing a haemagglutanin (HA) epitope; human prostanoid EP3 receptors were co-transfected with chimeric Gqi-HA; human EP1, FP, IP, and TP receptor cDNAs were expressed with no exogenous G-proteins. Gqs and Gqi chimeric cDNAs (Molecular Devices, Sunnyvale, Calif., U.S.A.), as well as cDNAs of prostanoid receptors, were cloned into a pCEP4 vector with a hygromycin B selection marker. Transfection into HEK-293 EBNA (Epstein-Barr virus nuclear antigen) cells was achieved by the FuGENE 6 transfection Reagent (Roche Applied Science, Indianapolis, Ind., USA). Stable transfectants were selected according to hygromycin resistance. Because Gqs and Gqi contained an HA epitope, G-protein expression was detected by Western blotting analysis using anti-mouse HA monoclonal antibody and horseradish peroxidase (HRP)-conjugated secondary antibody, while functional expression of prostanoid receptors was detected by FLIPR screening (Matias et al., 2004). These stable cell lines were validated using previously published antagonists at 10 μM against serial dilutions of standard agonists by FLIPR functional assays for Ca^2+ Signaling (as described below).
(§3) Ca^2+ signaling studies were performed using a FLIPR TETRA system (Molecular Devices, Sunnyvale, Calif., USA) in the 384-format. This is a high-throughput instrument for cell-based assays to monitor Ca^2+ signaling associated with GPCRs and ion channels. Cells were seeded at a density of 5×10^4 cells/well in BioCoat poly-D-lysine coated, black wall, clear bottom 384-well plates (BD Biosciences, Franklin lakes, NJ, USA) and allowed to attach overnight in an incubator at 37° C. The cells were then washed twice with HBSS-HEPES buffer (Hanks' balanced salt solution without bicarbonate and phenol red, 20 mM HEPES, pH 7.4) using an ELx405 Select CW Microplate Washer (BioTek, Winooski, Vt., USA). After 60 min of dye-loading in the dark using the Ca^2+-sensitive dye Fluo-4AM (Invitrogen, Carlsbad, Calif., USA), at a final concentration of 2×10^−6M, the plates were washed 4 times with HBSS-HEPES buffer to remove excess dye and leaving 50 μl of buffer in each well. The plates were then placed in the FLIPR TETRA instrument and allowed to equilibrate at 37° C. Compounds were added in a 25 μl volume to each well to give final concentrations of 0.1 μM, 0.3 μM, 1 μM, 3 μM, 10 μM, and 30 μM; or 0.067 μM, 0.1 μM, 0.2 μM, 0.3 μM, 0.67 μM, and 1 μM for cells over-expressing TP receptors. After 4.5 minutes, a 7-point serial dilution of the standard agonist for the corresponding receptor, in a 25 μl volume was injected at the final concentrations from 10^−11M to 10^−5M in 10-fold serial dilution increments for cells expressing human recombinant DP1, EP1, EP2, EP3, EP4, FP, and IP receptors. The dose range for the standard agonist for human recombinant TP receptors was from 10^−12M to 10^−6M. HBSS-HEPES buffer was used as the negative control for the standard agonists. Cells were excited with LED (light emitting diode) excitation at 470-495 nm and emission was measured through an emission filter at 515-575 nm. Assay plates were read for 3.5 minutes using the FLIPR^TETRA. The peak increase in fluorescence intensity was recorded for each well. On each plate, negative controls, dose response of positive controls, and co-treatments of antagonist-agonist for each dose were in triplicates. Standard agonists were as follows: DP=BW 245C, EP1-EP4=PGE2, FP=17-phenyl-PGF2α, IP=Cicaprost, and TP=U-46619. […]

The target in experiment [2] is T2, human prostanoid TP receptor (Homo sapiens, UniProt P21731).
T2 construct: expressed in transfected cells
T2 sequence (P21731 1-343): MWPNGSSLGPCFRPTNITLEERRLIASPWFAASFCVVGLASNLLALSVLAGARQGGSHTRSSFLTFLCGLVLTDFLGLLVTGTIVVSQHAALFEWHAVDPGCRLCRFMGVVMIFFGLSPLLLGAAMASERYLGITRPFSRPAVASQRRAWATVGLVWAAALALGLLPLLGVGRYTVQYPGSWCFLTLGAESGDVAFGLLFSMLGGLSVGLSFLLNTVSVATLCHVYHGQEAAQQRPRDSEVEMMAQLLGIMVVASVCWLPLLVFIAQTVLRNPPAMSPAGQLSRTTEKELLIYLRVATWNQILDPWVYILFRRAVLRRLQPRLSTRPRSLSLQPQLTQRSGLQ
In words: FLIPR Ca2+ signaling PG antagonist assay, TP stable cell line. To be noted: HEK-293 EBNA cells, human recombinant TP, no exogenous G-protein; standard agonist U-46619. As for the experimental part: as §1, §2, §3

Experiment [3] deals with T3, human prostanoid DP1 receptor (Homo sapiens, UniProt Q13258).
T3 construct: expressed in transfected cells
T3 sequence (Q13258 1-359): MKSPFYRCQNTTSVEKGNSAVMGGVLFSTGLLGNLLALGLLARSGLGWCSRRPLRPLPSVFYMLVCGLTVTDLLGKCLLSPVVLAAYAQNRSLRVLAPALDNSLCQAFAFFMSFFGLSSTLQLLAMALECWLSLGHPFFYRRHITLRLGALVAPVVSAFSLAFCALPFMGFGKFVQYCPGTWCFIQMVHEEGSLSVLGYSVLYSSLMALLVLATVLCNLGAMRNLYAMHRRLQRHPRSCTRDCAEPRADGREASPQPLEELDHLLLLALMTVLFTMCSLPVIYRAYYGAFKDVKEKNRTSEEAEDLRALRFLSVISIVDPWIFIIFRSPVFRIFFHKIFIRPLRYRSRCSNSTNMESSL
As to the kind of experiment: FLIPR Ca2+ signaling PG antagonist assay, DP1 stable cell line. The settings on record: HEK-293 EBNA cells, human recombinant DP1 with chimeric Gqs, standard agonist BW 245C; for Kb: read-out: DP (Kb, PG antagonist activity). As for the experimental part: as §1, §2, §3

The values below come from US10988474B2, “Compounds acting at multiple prostaglandin receptors giving a general anti-inflammatory response” (ALLERGAN, INC., priority 2011, dated 2021).

T1 sequence (P43088 whole entry): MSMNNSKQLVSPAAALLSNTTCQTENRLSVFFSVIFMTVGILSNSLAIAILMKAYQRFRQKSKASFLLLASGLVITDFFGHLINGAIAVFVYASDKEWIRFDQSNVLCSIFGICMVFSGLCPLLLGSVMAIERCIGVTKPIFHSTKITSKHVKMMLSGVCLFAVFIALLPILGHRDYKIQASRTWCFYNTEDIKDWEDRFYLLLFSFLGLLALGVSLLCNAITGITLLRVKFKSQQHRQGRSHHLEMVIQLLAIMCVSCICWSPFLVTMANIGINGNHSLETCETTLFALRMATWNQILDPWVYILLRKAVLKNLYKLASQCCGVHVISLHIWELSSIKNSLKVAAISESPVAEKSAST

As for `Cc1nn(Cc2cc(Cl)ccc2OCC(C)C)c2ccc(C(=O)O)cc12` [Example 24, 1-(5-Chloro-2-Isobutoxy-Benzyl)-3-Methyl-1H-Indazole-5-Carboxylic Acid], the Kb – broadly, the equilibrium dissociation constant of an antagonist, usually derived from a functional assay – in experiment [1] worked out at 0.04 µM; in experiment [2], 0.08 µM; in experiment [3] it was 0.16 µM.
The matching figures for `Cc1nn(Cc2cc(C(F)(F)F)ccc2OCC(C)C)c2ccc(C(=O)O)cc12` [Example 25, 1-(2-Isobutoxy-5-Trifluoromethyl-Benzyl)-3-Methyl-1H-Indazole-5-Carboxylic Acid]: 0.18 µM, 0.05 µM and 0.22 µM.
The like results for `CCC(CC)COc1ccc(C(F)(F)F)cc1Cn1nc(C)c2cc(C(=O)O)ccc21` [Example 26, 1-[2-(2-Ethyl-Butoxy)-5-Trifluoromethyl-Benzyl]-3-Methyl-1H-Indazole-5-Carboxylic Acid] were, in that order, 0.5 µM, 0.018 µM and 1.7 µM.
As to `CCC(CC)COc1ccc(Br)cc1Cn1nc(C)c2cc(C(=O)O)ccc21` [Example 27, 1-[5-Bromo-2-(2-Ethyl-Butoxy)-Benzyl]-3-Methyl-1H-Indazole-5-Carboxylic Acid], the Kb stood at 0.2 µM in experiment [1], 0.02 µM in experiment [2] and 1.6 µM in experiment [3].
The matching figures for `Cc1nn(Cc2cc(Br)ccc2OCC2(C)CC2)c2ccc(C(=O)O)cc12` [Example 28, 1-[5-Bromo-2-(1-Methyl-Cyclopropylmethoxy)-Benzyl]-3-Methyl-1H-Indazole-5-Carboxylic Acid]: 0.07 µM, 0.007 µM and 0.73 µM.
The like results for `O=C(O)c1ccc2c(cnn2Cc2cc(C(F)(F)F)ccc2OCc2ccc(Cl)cc2)c1` [Example 32, 1-[2-(4-Chloro-Benzyloxy)-5-Trifluoromethyl-Benzyl]-1H-Indazole-5-Carboxylic Acid] were, in that order, 0.05 µM, 0.05 µM and 1.7 µM.
The like results for `O=C(O)c1ccc2c(cnn2Cc2cc(C(F)(F)F)ccc2OCC2CCCC2)c1` [Example 33, 1-(2-Cyclopentylmethoxy-5-Trifluoromethyl-Benzyl)-1H-Indazole-5-Carboxylic Acid] were, in that order, 0.07 µM, 0.001 µM and 0.35 µM.
`O=C(O)c1cccc2c1cnn2Cc1cc(Cl)ccc1OCC1CC1` [Example 34, 1-(5-Chloro-2-Cyclopropylmethoxy-Benzyl)-1H-Indazole-4-Carboxylic Acid]: the values for the Kb in experiment [1], in experiment [2] and in experiment [3] were 3.2 µM, 0.1 µM and 5.4 µM, respectively.
The like results for `O=C(O)c1cccc2nn(Cc3cc(Cl)ccc3OCC3CC3)cc12` [Example 35, 2-(5-Chloro-2-Cyclopropylmethoxy-Benzyl)-2H-Indazole-4-Carboxylic Acid] were, in that order, 4.3 µM, 1.2 µM and 1.9 µM.
The matching figures for `CC(C)COc1ccc(Cl)cc1Cn1ncc2c(C(=O)O)cccc21` [Example 36, 1-(5-Chloro-2-Isobutoxy-Benzyl)-1H-Indazole-4-Carboxylic Acid]: 0.58 µM, 0.003 µM and 1.1 µM.
In the case of `CC(C)COc1ccc(Cl)cc1Cn1cc2c(C(=O)O)cccc2n1` [Example 37, 2-(5-Chloro-2-Isobutoxy-Benzyl)-2H-Indazole-4-Carboxylic Acid], the Kb in experiment [1] is at least 10 µM; in experiment [2], 0.2 µM; in experiment [3], 1.3 µM.
Turning to `CCC(CC)COc1ccc(Cl)cc1Cn1ncc2c(C(=O)O)cccc21` [Example 38, 1-[5-Chloro-2-(2-Ethyl-Butoxy)-Benzyl]-1H-Indazole-4-Carboxylic Acid], the figures for the Kb in experiment [1], in experiment [2] and in experiment [3] were 1.1 µM, 0.003 µM and 0.63 µM, respectively.
The matching figures for `CCC(CC)COc1ccc(Cl)cc1Cn1cc2c(C(=O)O)cccc2n1` [Example 39, 2-[5-Chloro-2-(2-Ethyl-Butoxy)-Benzyl]-2H-Indazole-4-Carboxylic Acid]: at least 10 µM, 0.11 µM and 1 µM.
Regarding `O=C(O)c1cccc2c1cnn2Cc1cc(Cl)ccc1OCc1ccc(Cl)cc1` [Example 40, 1-[5-Chloro-2-(4-Chloro-Benzyloxy)-Benzyl]-1H-Indazole-4-Carboxylic Acid], the figures for the Kb in experiment [1] and in experiment [3] were 0.27 µM and 1 µM, respectively. Besides, the “TP (Kb, PG antagonist activity)” value in experiment [2] is listed as “Ag”.
As to `O=C(O)c1cccc2nn(Cc3cc(Cl)ccc3OCc3ccc(Cl)cc3)cc12` [Example 41, 2-[5-Chloro-2-(4-Chloro-Benzyloxy)-Benzyl]-2H-Indazole-4-Carboxylic Acid], the Kb in experiment [1] was at least 10 µM; in experiment [2], 7.4 µM; in experiment [3], 4.7 µM.
In the case of `CC(C)COc1ccc(Br)cc1Cn1ncc2ccc(C(=O)O)cc21` [Example 42, 1-(5-Bromo-2-Isobutoxy-Benzyl)-1H-Indazole-6-Carboxylic Acid], the figures for the Kb in experiment [1], in experiment [2] and in experiment [3] were 0.9 µM, 0.02 µM and 0.16 µM, respectively.
In the case of `O=C(O)c1ccc2cnn(Cc3cc(Br)ccc3OCC3CCCC3)c2c1` [Example 44, 1-(5-Bromo-2-Cyclopentylmethoxy-Benzyl)-1H-Indazole-6-Carboxylic Acid], the Kb came out at 1.4 µM in experiment [1] and 0.001 µM in experiment [2]. In addition, in experiment [3], the “DP (Kb, PG antagonist activity)” value is given as “PAg”.
As for `O=C(O)c1ccc2cn(Cc3cc(Br)ccc3OCC3CCCC3)nc2c1` [Example 45, 2-(5-Bromo-2-Cyclopentylmethoxy-Benzyl)-2H-Indazole-6-Carboxylic Acid], the Kb amounted to 1.4 µM in experiment [1], 0.08 µM in experiment [2] and 2.8 µM in experiment [3].
The like results for `CCC(CC)COc1ccc(Cl)cc1Cn1ncc2ccc(C(=O)O)cc21` [Example 46, 1-[5-Chloro-2-(2-Ethyl-Butoxy)-Benzyl]-1H-Indazole-6-Carboxylic Acid] were, in that order, at least 10 µM, 0.15 µM and 2.5 µM.
